Test results as given in patent US5861375A, “Antiprotozoal cyclic tetrapeptides” (Merck & Co., Inc., priority 1997, dated 1999).

System: Plasmodium falciparum
Experiment: Radioactive antimalarial assay (parasite specific uptake of radiolabel)
Format: cell-based
Conditions: P. falciparum
Method: Compound of formula Ia was evaluated against Eimeria tenella, Toxoplasma gondii, and Plasmodium falciparum according to methods reported in the literature.
The antimalarial activity was determined in a radioactive assay following the general protocol described in Desjardins et al, "Quantitative Assessment of Antimalarial Activity In Vitro by a Semiautomated Microdilution Technique" Antimicrobial Agents and Chemotherapy. 1979, 16:710-718.

Compound: CCC(=O)CCCCC[C@@H]1NC(=O)[C@H]2CCCCN2C(=O)[C@H]([C@@H](C)CC)NC(=O)[C@H](Cc2cn(OC)c3ccccc23)NC1=O [Ia]
- IC50 (the concentration of drug which inhibits the parasite specific uptake of radiolabel by 50%): 54 ng/mL
